According to patent publication US12257228B2, “Cardioversion methods using budiodarone” (Xyra, LLC, priority 2023, dated 2025):
Like-named read-outs stand apart in the source and are kept apart here.

Tests used:
[1] = Impact of food on plasma budiodarone concentration, fasting versus fed (FIG. 2); assay type: in vivo, patients
Method: This example evaluates the impact on plasma budiodarone concentrations based on a fasting or fed patient. In this example, patients were either fasting or fed before the administration of budiodarone. After budiodarone administration, blood was collected from the patients, and the plasma concentration of budiodarone was determined. FIG. 2 illustrates that in the same dosing of budiodarone, the uptake of budiodarone increased as evidenced by the Cmax values.

[2] = cited from earlier work
[3] = test system: patients with long episodes of either paroxysmal or persistent AFib; test: Duration of AFib episodes under incremental b.i.d. doses of budiodarone (pacemaker monitoring); assay type: in vivo; settings: for Average Episode duration: baseline 4.8 hrs
Method: (§1) In this example, patients were selected with long episodes of either paroxysmal or persistent AFib. Each of the patients was implanted with a pacemaker which monitored their heart rhythm. Patients were then evaluated for disease progression by monitoring their heart rhythm without budiodarone treatment in order to generate a baseline level of the duration of episodes of AFib. The baseline data was collected over two weeks. Patients were then given incremental doses of budiodarone at 200 mg b.i.d; 400 mg b.i.d.; 600 mg b.i.d.; and 800 mg b.i.d. where each dose was maintained for 2 weeks for a total of 4 treatment periods. A two-week washout period was employed after the completion of the 800 mg b.i.d. treatment period, wherein a washout period is the time after the last treatment to avoid misinterpreting observations about study-related treatments that may have been due to prior therapies. Pacemaker data were downloaded on days 8 and 14 of each two-week cycle and averages for each test period are shown. Blood was collected during each cycle and tested for the concentration of budiodarone.

[4] = Trough plasma concentration of budiodarone during b.i.d. dosing cycles and washout; assay type: in vivo, patients
Method: (§2) It is noted that budiodarone concentrations used in the examples below include both the free acid and the free base versions of budiodarone.
as §1

[5] = Budiodarone concentrations in plasma over time after different single doses (FIG. 1); assay type: in vivo, patients
Method: as §2
In this example, plasma concentrations of budiodarone were evaluated using different single-dosing amounts of the drug. […] The resulting data was placed on a graph and the data for each concentration provided for both a Cmax for the dose employed as well as a trough value at 6 hours.

shift in time of Cmax in the fed group versus fasted patients ([1]; fed versus fasted patients): about an hour later
uptake of budiodarone as evidenced by the Cmax values, fed versus fasting ([1]; same dosing of budiodarone, fed versus fasting patients): increased
effective plasma level within 60 min, maintained for up to 6 hours ([1]; single oral dose of 400-1,000 mg, whether or not taken with food): > 50 ng/mL
Trough Pk levels ng/ml in plasma ([4]; 200 mg bid, doses approximately 12 hours apart): 2.4 +/ ng/ml
Trough Pk levels ng/ml in plasma ([4]; 400 mg bid, doses approximately 12 hours apart): 5.2 +/ ng/ml
Trough Pk levels ng/ml in plasma ([4]; 600 mg bid, doses approximately 12 hours apart): 13.1 +/ ng/ml
Trough Pk levels ng/ml in plasma ([4]; 800 mg bid, doses approximately 12 hours apart): 19.8 +/ ng/ml
washout trough concentration as share of the trough concentration at 800 mg b.i.d. ([4]; 2 weeks post 800 mg b.i.d.): about 1.5%
concentration at 12 h ([4]; human, plasma, 800 mg b.i.d., doses approximately 12 hours apart, read-out: Trough Pk levels ng/ml in plasma): 19.8 ng/mL
concentration at 2 weeks ([4]; human, plasma, 800 mg b.i.d., washout, 2 weeks post 800 mg bid, read-out: Trough Pk levels ng/ml in plasma): 0.3 ng/mL
Trough Pk levels ng/ml in plasma ([4]; washout, 2 weeks post 800 mg bid): 0.3 +/ ng/ml
plasma concentration maintained for over 6 hours ([5]; each single dose at or above 400 mg): greater than 13 ng/mL
plasma level maintained for at least 6 hours ([5]; high dosing, bolus such as 1,000 mg): above 13 ng/mL
plasma concentration for up to about 6 hours ([5]; high single dose (about 800 mg to 1200 mg), see FIG. 1): over 40 ng/mL
Cmax ([5]; human, plasma, oral, 1000 mg, bolus such as 1,000 mg, read-out: Cmax concentration in plasma): > 300 ng/mL
concentration at 8 h ([5]; human, plasma, oral, 1000 mg, bolus such as 1,000 mg, read-out: plasma concentration in about 8 hours): < 20 ng/mL
Cmax ([5]; human, plasma, oral, each single dose at or above 400 mg, plasma, read-out: Cmax): > 50 ng/mL
Cmax ([5]; human, plasma, oral, high single dose (about 800 mg to 1200 mg), see FIG. 1, read-out: Cmax): ≤ 350 ng/mL
concentration at 6 h ([5]; human, plasma, oral, single dose at 800 mg or 1,000 mg): ~50 ng/mL
concentration at 8 h ([5]; human, plasma, oral, single dose at 800 mg or 1,000 mg, read-out: plasma concentration at 8 hours): ≥ 15 ng/mL
SMILES: CC[C@H](C)OC(=O)Cc1oc2ccccc2c1C(=O)c1cc(I)c(OCCN(CC)CC)c(I)c1 [budiodarone, (S)-sec-butyl2-(3-(4-(2-(diethylamino)ethoxy)-3,5-diiodobenzoyl)benzofuran-2-yl)acetate]
half-life compared with amiodarone [2]: much shorter half-life than amiodarone
effect on QT interval ([2]; while reducing episodes of long-duration AFib): without a significant increase in the QT interval
Average Episode duration ([3]; 200 mg bid for 2 weeks, average of pacemaker downloads on days 8 and 14): 1.7 h
Average Episode duration ([3]; 400 mg bid for 2 weeks): 0.6 h
longest average duration of AFib ([3]; 600 mg b.i.d.): 6 min
Average Episode duration ([3]; 600 mg bid for 2 weeks): 0.1 h
Average Episode duration ([3]; 800 mg bid for 2 weeks): 0.5 h
maximum duration AFib levels ([3]; all dosing levels from 400 mg b.i.d. to 800 mg b.i.d.): less than 45 minutes
Average Episode duration ([3]; two-week washout after 800 mg bid): 2.4
